Source: patent publication US10689383B2, “Optionally fused heterocyclyl-substituted derivatives of pyrimidine useful for the treatment of inflammatory, metabolic, oncologic and autoimmune diseases” (NUEVOLUTION A/S, priority 2014, dated 2020)

Legend:
[1] = molecular target: T1, human RORγt (Ligand Binding Domain) (Homo sapiens, UniProt P51449); experiment: Fluorescence Polarization (FP) Assay; details: Fluorescence Polarization (FP) Assay; values given as upper bounds of activity ranges; read-out: FP activity range
T1 construct: purchased Crelux (Planegg, Germany) batch no PC5032-1
T1 sequence (P51449 269-508 limits assumed): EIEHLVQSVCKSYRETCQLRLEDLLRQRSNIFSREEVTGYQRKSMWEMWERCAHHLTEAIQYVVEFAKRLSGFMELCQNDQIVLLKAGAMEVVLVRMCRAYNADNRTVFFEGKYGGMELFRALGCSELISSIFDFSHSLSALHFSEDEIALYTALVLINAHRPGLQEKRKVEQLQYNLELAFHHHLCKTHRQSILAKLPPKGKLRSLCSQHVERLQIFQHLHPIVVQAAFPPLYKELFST
How it was run: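 Binding to the ligand pocket followed by fluorescence polarization with a TAMRA-tagged RORγt ligand probe of 910 g/mole. Negative control wells received DMSO only.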

[2] = molecular target: T2, yeast Gal4-DNA binding domain fused to the ligand binding domain of human RORγ (Homo sapiens, UniProt P51449); experiment: RORγ Reporter Assay (Gal4); format: cell-based; details: values given as lower bounds of ranges; for Gal4 activity range @ 0.1 μM (% inhibition): RORγ Reporter Assay (Gal4) at 0.1 μM; for Gal4 activity range @ 1 μM (% inhibition): RORγ Reporter Assay (Gal4) at 1 μM
T2 construct: host or cells: HEK293t
T2 sequence (P51449 269-508 limits assumed): T1 sequence (P51449 269-508 limits assumed)
How it was run: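 Compound at final 1,000 or 100 nM (0.1% DMSO, triplicate) was added to the transfected HEK293t cells carrying a Gal4-UAS luciferase reporter for 24 h at 37 °C, 10% charcoal-stripped FBS. Activity reduction expressed as percent of vehicle-only luciferase signal.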

SMILES	IC50 [1] [µM]	Gal4 activity range @ 0.1 μM (% inhibition) [2] [% inhibition]	Gal4 activity range @ 1 μM (% inhibition) [2] [% inhibition]
NC(=O)c1ccc(CNc2ncnc(N3CCC[C@@H]3c3ccc(C(F)(F)F)cc3)c2F)cc1 [Example 226, 4-[[[5-fluoro-6-[(2R)-2-[4-(trifluoromethyl)phenyl]pyrrolidin-1-yl]pyrimidin-4-yl]amino]methyl]benzamide]	< 10	–	>50
CC(=O)N1CCC(CNc2ncnc(N3CCOC[C@@H]3c3ccc(C(F)(F)F)cc3)c2F)CC1 [Example 233, 1-[4-[[[5-fluoro-6-[(3S)-3-[4-(trifluoromethyl)phenyl]morpholin-4-yl]pyrimidin-4-yl]amino]methyl]-1-piperidyl]ethanone]	< 0.5	>20	>80
O=S1(=O)CCC(O)(CNc2ncnc(N3CCOC[C@@H]3c3ccc(C(F)(F)F)cc3)c2F)CC1 [Example 234, 4-[[[5-fluoro-6-[(3S)-3-[4-(trifluoromethyl)phenyl]morpholin-4-yl]pyrimidin-4-yl]amino]methyl]-1,1-dioxo-thian-4-ol]	< 1	>0	>50
CC1(CNc2ncnc(N3CCOC[C@@H]3c3ccc(C(F)(F)F)cc3)c2F)COC1 [Example 235, 5-fluoro-N-[(3-methyloxetan-3-yl)methyl]-6-[(3S)-3-[4-(trifluoromethyl)phenyl]morpholin-4-yl]pyrimidin-4-amine]	< 2	>0	>50
O=S(=O)(NC1CC1)c1ccc(CNc2ncnc(N3CCOC[C@@H]3c3ccc(C(F)(F)F)cc3)c2F)cc1 [Example 236, N-cyclopropyl-4-[[[5-fluoro-6-[(3S)-3-[4-(trifluoromethyl)phenyl]morpholin-4-yl]pyrimidin-4-yl]amino]methyl] benzenesulfonamide]	< 0.5	>80	>80
CS(=O)(=O)N1CCC(CNc2ncnc(N3CCOC[C@@H]3c3ccc(C(F)(F)F)cc3)c2F)CC1 [Example 237, 5-fluoro-N-[(1-methylsulfonyl-4-piperidyl)methyl]-6-[(3S)-3-[4-(trifluoromethyl)phenyl]morpholin-4-yl]pyrimidin-4-amine]	< 0.5	>80	>80
OC1(CNc2ncnc(N3CCOC[C@@H]3c3ccc(C(F)(F)F)cc3)c2F)CCOC1 (stereo partly drawn) [Example 238, 3-[[[5-fluoro-6-[(3S)-3-[4-(trifluoromethyl)phenyl]morpholin-4-yl]pyrimidin-4-yl]amino]methyl]tetrahydrofuran-3-ol]	< 10	>0	>50
OCCC1(CNc2ncnc(N3CCOC[C@@H]3c3ccc(C(F)(F)F)cc3)c2F)CCOCC1 [Example 239, 2-[4-[[[5-fluoro-6-[(3S)-3-[4-(trifluoromethyl)phenyl]morpholin-4-yl]pyrimidin-4-yl]amino]methyl]tetrahydropyran-4-yl]ethanol]	< 0.5	>20	>80
CS(=O)(=O)CC1(CNc2ncnc(N3CCC[C@@H]3c3ccc(C(F)(F)F)cc3)c2F)CCOCC1 [Example 240, 5-fluoro-N-[[4-(methylsulfonylmethyl)tetrahydropyran-4-yl]methyl]-6-[(2R)-2-[4-(trifluoromethyl)phenyl]pyrrolidin-1-yl]pyrimidin-4-amine]	< 0.5	>80	>80
NC(=O)CC1CCC(CNc2ncnc(N3CCOC[C@@H]3c3ccc(OC(F)(F)F)cc3)c2F)CC1 (stereo partly drawn) [Example 245, 2-[4-[[[5-fluoro-6-[(3S)-3-[4-(trifluoromethoxy)phenyl]morpholin-4-yl]pyrimidin-4-yl]amino]methyl]cyclohexyl] acetamide]	< 1	>20	>80
Fc1c(NCc2ccc(Cc3nnn[nH]3)cc2)ncnc1N1CCOC[C@@H]1c1ccc(OC(F)(F)F)cc1 [Example 246, 5-fluoro-N-[[4-(1H-tetrazol-5-ylmethyl)phenyl]methyl]-6-[(3S)-3-[4-(trifluoromethoxy)phenyl]morpholin-4-yl]pyrimidin-4-amine]	< 0.5	>20	>80
Fc1c(NCC2CCOCC2)ncnc1N1CCOC[C@@H]1c1ccc(C(F)(F)F)cc1 [Example 247, 5-fluoro-N-(tetrahydropyran-4-ylmethyl)-6-[(3S)-3-[4-(trifluoromethyl)phenyl]morpholin-4-yl]pyrimidin-4-amine]	< 10	>20	>80
CC1CC(c2ccc(C(F)(F)F)cc2)N(c2ncnc(NCc3ccc(CC(N)=O)cc3)c2F)C1 (centres unmarked) [Example 248, 2-[4-[[[5-fluoro-6-[4-methyl-2-[4-(trifluoromethyl)phenyl]pyrrolidin-1-yl]pyrimidin-4-yl]amino]methyl]phenyl]acetamide]	< 1	>20	>80

The remaining lines, values ahead:

IC50 [1] [µM]	Gal4 activity range @ 0.1 μM (% inhibition) [2] [% inhibition]	Gal4 activity range @ 1 μM (% inhibition) [2] [% inhibition]	SMILES
< 0.5	>80	>80	O=S(=O)(NC1CC1)c1ccc(CNc2ncnc(N3CCC[C@@H]3c3ccc(C(F)(F)F)cc3)c2F)cc1 [Example 224, N-cyclopropyl-4-[[[5-fluoro-6-[(2R)-2-[4-(trifluoromethyl)phenyl]pyrrolidin-1-yl]pyrimidin-4-yl]amino]methyl]benzenesulfonamide]
< 0.5	>80	>80	OCC1CCC(CNc2ncnc(N3CCC[C@@H]3c3ccc(C(F)(F)F)cc3)c2F)CC1 (stereo partly drawn) [Example 225, [4-[[[5-fluoro-6-[(2R)-2-[4-(trifluoromethyl)phenyl]pyrrolidin-1-yl]pyrimidin-4-yl]amino]methyl]cyclohexyl] methanol]
< 0.5	>80	>80	OCc1ccc(CNc2ncnc(N3CCC[C@@H]3c3ccc(C(F)(F)F)cc3)c2F)cc1 [Example 227, [4-[[[5-fluoro-6-[(2R)-2-[4-(trifluoromethyl)phenyl]pyrrolidin-1-yl]pyrimidin-4-yl]amino]methyl]phenyl]methanol]
< 0.5	>20	>80	OCC1(CNc2ncnc(N3CCC[C@@H]3c3ccc(C(F)(F)F)cc3)c2F)COC1 [Example 228, [3-[[[5-fluoro-6-[(2R)-2-[4-(trifluoromethyl)phenyl]pyrrolidin-1-yl]pyrimidin-4-yl]amino]methyl]oxetan-3-yl]methano1]
< 0.5	>50	>80	CC1(c2ccc(C(F)(F)F)cc2)CCCN1c1ncnc(NCc2ccc(CC(N)=O)cc2)c1F (centres unmarked) [Example 229, 2-[4-[[[5-fluoro-6-[2-methyl-2-[4-(trifluoromethyl)phenyl]pyrrolidin-1-yl]pyrimidin-4-yl]amino]methyl]phenyl]acetamide]
< 0.5	>50	>80	NC(=O)Cc1ccc(CNc2ncnc(N3CCOC[C@@H]3c3ccc(OC(F)(F)F)cc3)c2F)cc1 [Example 230, 2-[4-[[[5-fluoro-6-[(3S)-3-[4-(trifluoromethoxy)phenyl]morpholin-4-yl]pyrimidin-4-yl]amino]methyl]phenyl]acetamide]
< 0.5	>50	>80	NC(=O)Cc1ccc(CNc2ncnc(N3CC(F)(F)CC3c3ccc(C(F)(F)F)cc3)c2F)cc1 (centres unmarked) [Example 231, 2-[4-[[[6-[4,4-difluoro-2-[4-(trifluoromethyl)phenyl]pyrrolidin-1-yl]-5-fluoro-pyrimidin-4-yl]amino]methyl]phenyl]acetamide]
< 0.5	>50	>80	NC(=O)Cc1ccc(CNc2ncnc(N3CCC[C@@H]3c3ccc(C(F)(F)F)cc3F)c2F)cc1 [Example 232, 2-[4-[[[5-fluoro-6-[(2R)-2-[2-fluoro-4-(trifluoromethyl)phenyl]pyrrolidin-1-yl]pyrimidin-4-yl]amino]methyl]phenyl]acetamide]
